# In patent US9789096B2, “Methods and compositions for selective and targeted cancer therapy” (Board of Regents of the University of Texas System, priority 2013, dated 2017):
# Where two headings read alike, the source gives them in different places.
# Key:
# Assay type in all cases: cell-based, human
# HCC44 = assay: Cell viability dose-response, HCC44; conditions: for AC50: 12-point dose-response starting at 50 micromolar
# Method: (§1) FIG. 6A. […] Cell viability is plotted vs. compound concentration. Compound was added to cells plated at 15% confluence in 96-well plates in RPMI-1640 media supplemented with 5% Fetal Bovine Serum and 2 mM L-Glutamine. After 4 days of incubation, ATP levels were measured using Cell Titer Glo (Promega). Data are presented as the average of 2 replicates ±SEM.
# (§2) Selectivity may be measured by the half maximal inhibitory concentration (IC50), which, as used herein, is a measure of the effectiveness of a compound in killing cells. This quantitative measure indicates how much of a particular compound is needed to kill a particular cell population by half (e.g., as indicated by the amount of ATP). […] The IC50 can be determined by constructing a dose-response curve. The lower the IC50, the higher the potency, and the greater the difference between IC50 values for different cell lines (e.g., sensitive lines vs. insensitive lines, and sensitive lines vs. normal lines) the greater the selectivity. […]
# (§3) With this information, we synthesized and tested a series of small molecules derived in conception from the oxalamide and chromone scaffold including N-acyl ureas, as shown in Tables 6-8. Each compound was tested in a 12-point dose-response study starting at 50 micromolar and decreasing in 3-fold increments to sub-nanomolar concentrations, in duplicate. Additionally, one or more additional cell line was tested in the same way.
# H2122 = assay: Cell viability dose-response, H2122; conditions: for AC50: 12-point dose-response starting at 50 micromolar
# In short: (§4)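 Cells plated at 15% confluence in RPMI-1640 with 5% FBS and 2 mM L-glutamine, treated with compound in a 12-point, 3-fold dilution series from 50 micromolar, in duplicate. ATP measured by Cell Titer Glo after 4 days; IC50 taken from the dose-response curve.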
# H2009 = assay: Cell viability dose-response, H2009; conditions: for IC50: NCI-H2009
# Method: as §1, §2, §3
# H1819 = assay: Cell viability dose-response, H1819; conditions: Homo sapiens, NCI-H1819, Tables 3 and 4; read-out: IC50 (uM) vs indicated non-small cell lung cancer cell line H1819
# In short: as §4
# [1] = Homo sapiens, Tables 3 and 4, read-out: IC50 (uM) vs indicated non-small cell lung cancer cell line H2009
# [2] = Homo sapiens, HCC44, 12-point dose-response starting at 50 micromolar, 3-fold increments, in duplicate, read-out: toxicity data, HCC44
# [3] = Homo sapiens, NCI-H2122, 12-point dose-response starting at 50 micromolar, 3-fold increments, in duplicate, read-out: toxicity data, H2122
# [4] = Homo sapiens, 12-point dose-response starting at 50 micromolar, 3-fold increments, in duplicate, read-out: toxicity data, H2009
# [5] = Homo sapiens, NCI-H2122, Table 9, competitor, read-out: IC50 to H2122 cells
# [6] = Homo sapiens, NCI-H2122, Table 8
# [7] = Homo sapiens, NCI-H2009, Table 8, 12-point dose-response starting at 50 micromolar
Structure (SMILES),IC50 (HCC44; [2]),IC50 (H2122; [3]),IC50 (H2009; [4]),also measured
O=c1c(Oc2ccccc2F)coc2cc(OCc3cnn(-c4ccccc4)c3)ccc12 [SW043139-2-A],,,,"AC50 (HCC44; Table 8): 49.5 µM; AC50 (H2122; Table 8): 0.292 µM; AC50 (H2009; Table 8, 12-point dose-response starting at 50 micromolar): 15.9 µM"
Nc1nc2cc([N+](=O)[O-])ccc2s1 [SW053525],,,,IC50 (H1819): 182 µM; IC50 (H2009; [1]): 1530 µM
C#CCOc1ccc(C(=O)c2ccc(NC(=O)C(=O)NC(C)Cc3ccc(OC)cc3)cc2)cc1 (stereo not shown) [SW208217-1-A],≥ 49.5 µM,≥ 49.5 µM,12.3 µM,
C#CCOc1ccc(C(=O)c2ccc(NC(=O)C(=O)NCC(C)c3ccc(OC)cc3)cc2)cc1 (stereo not shown) [SW208219-1-A],≥ 49.5 µM,≥ 49.5 µM,≥ 49.5 µM,
COc1ccc(CCNC(=O)NC(=O)c2ccc(C(=O)c3ccc(OC)cc3)cc2)cc1 [SW208220-1-A],≥ 49.5 µM,≥ 49.5 µM,≥ 49.5 µM,IC50 (H2122; [5]): 0.8 µM
COc1ccc(CCNC(=O)NC(=O)c2ccc(C(=O)c3ccccc3)cc2)cc1 [SW208222-1-A],0.241 µM,0.105 µM,48 µM,IC50 (H2122; [5]): 0.142 µM
O=c1c(Oc2ccccc2F)coc2cc(OCc3cn(-c4ccccc4)nn3)ccc12 [SW208232],,,,"AC50 (HCC44; Homo sapiens, HCC44, Table 8): 49.5 µM; AC50 (H2122; [6]): ≥ 49.5 µM; AC50 (H2009; [7]): 49.5 µM"
COc1ccc2nc(NC(=O)c3ccc(C(=O)c4ccccc4)cc3)sc2n1 [SW208233-1],,,,"IC50 (HCC44; Homo sapiens, HCC44, Tables 3 and 4, read-out: IC50 (uM) vs indicated non-small cell lung cancer cell line HCC44): 49.5 µM; IC50 (H2122; Homo sapiens, NCI-H2122, Tables 3 and 4, read-out: IC50 (uM) vs indicated non-small cell lung cancer cell line H2122): ≥ 49.5 µM; IC50 (H2009; [1]): 49.5 µM"
COc1ccc(CCNC(=O)NC(=O)c2cccc(-c3ccc(OC)cc3)c2)cc1 [SW208386-1-A],≥ 49.5 µM,≥ 49.5 µM,13.1 µM,
COc1ccc(CCNC(=O)NC(=O)c2ccc(-c3ccc(OC)cc3)cc2)cc1 [SW208387-1-A],0.25 µM,0.18 µM,≥ 49.5 µM,
COc1ccc(CCNC(=O)NC(=O)c2ccc(Br)cc2)cc1 [SW208388-1-A],0.42 µM,0.16 µM,≥ 49.5 µM,
COc1ccc(CCNC(=O)NC(=O)c2cccc(Br)c2)cc1 [SW208389-1-A],≥ 49.5 µM,≥ 49.5 µM,35.6 µM,
COC(=O)c1ccc(C(=O)NC(=O)NCCc2ccc(OC)cc2)cc1 [SW208390-1-A],≥ 49.5 µM,≥ 49.5 µM,≥ 49.5 µM,
COc1ccc(CCNC(=O)NC(=O)c2ccc(-c3cc4ccccc4c4ccccc34)cc2)cc1 [SW208391-1-A],≥ 49.5 µM,≥ 49.5 µM,7.16 µM,
COc1ccc(CCNC(=O)NC(=O)c2cccc(-c3cccc(Cl)c3)c2)cc1 [SW208392-1-A],≥ 49.5 µM,6.71 µM,≥ 49.5 µM,
COc1ccc(CCNC(=O)NC(=O)c2ccc(-c3ccccc3)cc2)cc1 [SW208393-1-A],≥ 49.5 µM,0.17 µM,≥ 49.5 µM,IC50 (H2122; [5]): 0.115 µM
COc1ccc(CCNC(=O)NC(=O)c2cccc(-c3ccccc3)c2)cc1 [SW208394-1-A],≥ 49.5 µM,≥ 49.5 µM,≥ 49.5 µM,
COc1ccc(CCNC(=O)NC(=O)c2ccc(C(=O)O)cc2)cc1 [SW208395-1-A],≥ 49.5 µM,≥ 49.5 µM,≥ 49.5 µM,
COc1ccc(CCNC(=O)NC(=O)c2cccc(-c3ccncc3)c2)cc1 [SW208396-1-A],≥ 49.5 µM,2.23 µM,4.95 µM,
COc1ccc(CCNC(=O)NC(=O)c2ccc(C(=O)N3CCCCC3)cc2)cc1 [SW208397-1-A],≥ 49.5 µM,2.28 µM,16.5 µM,
COc1ccc(CCNC(=O)NC(=O)c2ccc(C(=O)Nc3ccccc3)cc2)cc1 [SW208398-1-A],≥ 49.5 µM,0.36 µM,16.5 µM,
COc1ccc(CCNC(=O)NC(=O)c2cccc(C)c2)cc1 [SW208399-1-A],≥ 49.5 µM,≥ 49.5 µM,16.5 µM,
COc1ccc(CCNC(=O)NC(=O)c2cccc(Cl)c2)cc1 [SW208400-1-A],≥ 49.5 µM,≥ 49.5 µM,≥ 49.5 µM,
COc1ccc(CCNC(=O)NC(=O)c2ccc(Cl)cc2)cc1 [SW208401-1-A],0.54 µM,0.15 µM,≥ 49.5 µM,IC50 (H2122; [5]): 0.09 µM

Structure (SMILES),IC50 (HCC44; [2]),IC50 (H2122; [3]),IC50 (H2009; [4]),also measured
COc1ccc(CCNC(=O)NC(=O)c2ccc(OC)cc2)cc1 [SW208402-1-A],≥ 49.5 µM,1.03 µM,≥ 49.5 µM,
COc1ccc(CCNC(=O)NC(=O)c2cccc(OC)c2)cc1 [SW208403-1-A],≥ 49.5 µM,1.09 µM,42.7 µM,
COc1ccc(CCNC(=O)NC(=O)c2ccc(-c3ccncc3)cc2)cc1 [SW208404-1-A],≥ 49.5 µM,21.8 µM,≥ 49.5 µM,
COc1ccc(CCNC(=O)NC(=O)c2ccc(C(=O)N3CCOCC3)cc2)cc1 [SW208408-1-A],≥ 49.5 µM,≥ 49.5 µM,46.9 µM,
COc1ccc(CCNC(=O)NC(=O)c2ccc(C(=O)Nc3ccccc3OC)cc2)cc1 [SW208409-1-A],≥ 49.5 µM,0.14 µM,≥ 49.5 µM,
COc1ccc(CCNC(=O)NC(=O)c2ccc(C(=O)Nc3cccc(OC)c3)cc2)cc1 [SW208410-1-A],≥ 49.5 µM,≥ 49.5 µM,1.37 µM,
COc1ccc(CCNC(=O)NC(=O)c2ccc(C(=O)Nc3ccc(OC)cc3)cc2)cc1 [SW208411-1-A],≥ 49.5 µM,≥ 49.5 µM,≥ 49.5 µM,
COc1ccc(CCNC(=O)NC(=O)c2ccc(C(=O)NCc3ccccc3)cc2)cc1 [SW208412-1-A],≥ 49.5 µM,0.27 µM,2.14 µM,IC50 (H2122; [5]): 0.277 µM
CNC(=O)c1ccc(C(=O)NC(=O)NCCc2ccc(OC)cc2)cc1 [SW208413-1-A],≥ 49.5 µM,≥ 49.5 µM,16.3 µM,
COc1ccc(CCNC(=O)NC(=O)c2ccc(C(=O)N3CCN(C)CC3)cc2)cc1 [SW208414-1-A],≥ 49.5 µM,≥ 49.5 µM,5.05 µM,
COc1ccc(CCNC(=O)NC(=O)c2ccc(C(=O)NC3CC3)cc2)cc1 [SW208452-1-A],≥ 49.5 µM,≥ 49.5 µM,13.1 µM,
COc1ccc(CCNC(=O)NC(=O)c2ccc(C(=O)NC3CCC3)cc2)cc1 [SW208453-1-A],≥ 49.5 µM,0.864 µM,1.63 µM,
COc1ccc(CCNC(=O)NC(=O)c2ccc(C(=O)NC3CCCC3)cc2)cc1 [SW208454-1-A],≥ 49.5 µM,0.939 µM,≥ 49.5 µM,
COc1ccc(CCNC(=O)NC(=O)c2ccc(C(=O)N(C)C)cc2)cc1 [SW208455-1-A],≥ 49.5 µM,≥ 49.5 µM,16.5 µM,IC50 (H2122; [5]): 0.8 µM
COc1ccc(CCNC(=O)NC(=O)c2ccc(Oc3ccccc3)cc2)cc1 [SW208456-1-A],0.022 µM,0.031 µM,≥ 49.5 µM,
COc1ccc(CCNC(=O)NC(=O)c2ccc(OCc3ccccc3)cc2)cc1 [SW208457-1-A],0.023 µM,0.031 µM,≥ 49.5 µM,
COc1ccc(CCNC(=O)NC(=O)c2ccc(COc3ccccc3)cc2)cc1 [SW208458-1-A],0.008 µM,0.01 µM,0.099 µM,IC50 (H2122; [5]): 0.00425 µM
O=C(NCCc1ccc(O)cc1)NC(=O)c1ccc(C(=O)c2ccccc2)cc1 [SW208459-1-A],0.073 µM,0.097 µM,0.299 µM,IC50 (H2122; [5]): 0.0377 µM
COc1ccc(CCNC(=O)NC(=O)c2ccc(C(O)c3ccccc3)cc2)cc1 (stereo not shown) [SW208460-1-A],0.084 µM,0.097 µM,≥ 49.5 µM,IC50 (H2122; [5]): 0.0456 µM
COc1ccc(CCN(C)C(=O)NC(=O)c2ccc(C(=O)c3ccccc3)cc2)cc1 [SW208461-1-A],≥ 49.5 µM,8.67 µM,≥ 49.5 µM,
COc1ccc(CCCNC(=O)c2ccc(Cl)cc2)cc1 [SW208462-1-A],≥ 49.5 µM,≥ 49.5 µM,≥ 49.5 µM,
COc1ccc(CCNC(=O)c2ccc(Cl)cc2)cc1 [SW208463-1-A],≥ 49.5 µM,≥ 49.5 µM,≥ 49.5 µM,
COc1ccc(CNC(=O)c2ccc(Cl)cc2)cc1 [SW208464-1-A],≥ 49.5 µM,≥ 49.5 µM,≥ 49.5 µM,
O=c1c(Oc2ccccc2Br)coc2cc(OCc3cnn(-c4ccccc4)c3)ccc12 [SW 208585-1],,,,AC50 (H2122; [6]): 0.1 µM; AC50 (H2009; [7]): 35 µM
